Data reported in patent US12527838B2, “Combination therapies comprising an agent that blocks the interaction between CD47 and SIRPα for treating gastric or gastroesphageal junction cancel” (ALX Oncology Inc., priority 2019, dated 2026).

Columns and labels:
[1] = test system: RS4;11 leukemia cells; experiment: RS4;11 xenograft model (acute leukemia); format: in vivo, NOD-SCID female mice
Procedure: The RS4;11 cells (described in Stong et al. (1985) Blood. 65(1): 21-31) was injected into the right flank of NOD-SCID female mice at a concentration of 5×10^6 cells per mouse using a 1:1 matrigel (Corning) and RPMI 1640 ratio. Tumors were monitored until the average size of all tumors reached 190 mm^3. […] The formulation for Venetoclax was a ratio of DMSO:ethanol:Cremophor EL:dextrose 5% in water (D5W) was […], by volume. Venetoclax-treated mice were dosed with 250 μg of Venetoclax by oral gavage 2 times total, 3 days apart. Drug A-treated mice were dosed IP at 10 mg/kg, 4 times total, 3-4 days apart. […] Tumors were measured in two dimensions with calipers, and tumor volume was calculated as: length×width×width×0.5, where length was the larger of the two measurements.

[2] = cited from earlier work
[3] = test system: HL60 cells; experiment: In vitro phagocytosis of HL60 cells by human monocyte-derived macrophages; format: cell-based; conditions: 20 nM Drug A, 125 nM venetoclax; FIG. 5A
Procedure: CD14^+ monocytes were purified by negative selection using the Classical Monocytes Isolation Kit, human (Miltenyi Biotec) and LS columns (Miltenyi Biotec) according to the manufacturer's protocol. CD14^+ monocytes were seeded into 150 mm tissue culture dishes (Corning) at 6 million cells per dish in 25 mL medium comprised of RPMI complete media, supplemented with 50 ng/mL M-CSF (Miltenyi Biotec), 10% human FBS serum (Thermo Fisher Scientific), 1% penicillin/streptomycin, and 1% GlutaMAX. Cells were cultured for seven to eleven days.
HL60 and OCI-AML3 cells were washed once in PBS and labeled with the Celltrace CFSE Cell Proliferation kit (Thermo Fisher Scientific) in suspension with 300 nM CFSE (carboxyfluorescein succinimidyl ester) according to the manufacturer's instructions and resuspended in RPMI complete media. […] Prior to incubation with macrophages, cells were resuspended in RPMI. Macrophages were detached from culture plates by washing once with PBS and incubation in TrypLE Select for 20 minutes at 37° C. Cells were removed with a cell scraper (Corning), washed in PBS, and resuspended in RPMI. […]
Briefly HL60 cells and OCI-AML3 cells (i.e., “target cells”) were labeled with CFSE (carboxyfluorescein succinimidyl ester) and treated with venetoclax for 48 hours. […] Macrophage cells were pelleted, stained, and analyzed via flow cytometry. […]

[4] = test system: CT26 tumor cells; experiment: CT26 syngeneic mouse colon carcinoma model; format: in vivo, BALB/c female mice
Procedure: The CT26 cells (see Wang et al. (1995) J. Immunol. 154:4685-4692) were injected into the right flank of BALB/c female mice at a concentration of 5×10^5 cells per mouse in RPMI 1640. Tumors were monitored until the average size of all tumors reached 65-70 mm^3. […] The two 30 mpk doses were given 10 days apart. […] Mice receiving both cisplatin and Drug were administered with cisplatin (IP) according to one of the regimens described above, and with Drug A as described above. In mice receiving combination treatment, Drug A was administered one day after cisplatin. Tumors were measured in two dimensions with calipers, and tumor volume was calculated as: length×width×width×0.5, where length was the larger of the two measurements.

[5] = test system: BCL-XL-dependent cells, such as platelets; conditions: cited from earlier work
[6] = biological target: BCL-XL (Homo sapiens, UniProt Q07817); conditions: selectivity profile; cited from earlier work
Sequence of BCL-XL (Q07817 whole entry, species assumed): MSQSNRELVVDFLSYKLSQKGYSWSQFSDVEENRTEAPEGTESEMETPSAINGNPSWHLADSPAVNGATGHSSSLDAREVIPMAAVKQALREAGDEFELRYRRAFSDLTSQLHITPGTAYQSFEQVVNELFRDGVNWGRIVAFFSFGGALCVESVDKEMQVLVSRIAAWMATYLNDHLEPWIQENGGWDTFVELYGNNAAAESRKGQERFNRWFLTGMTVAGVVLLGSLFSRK

[7] = biological target: T1, BFL-1 (BCL2A1/A1) (Homo sapiens, UniProt Q16548); conditions: selectivity profile; cited from earlier work
T1 sequence (Q16548 1-175): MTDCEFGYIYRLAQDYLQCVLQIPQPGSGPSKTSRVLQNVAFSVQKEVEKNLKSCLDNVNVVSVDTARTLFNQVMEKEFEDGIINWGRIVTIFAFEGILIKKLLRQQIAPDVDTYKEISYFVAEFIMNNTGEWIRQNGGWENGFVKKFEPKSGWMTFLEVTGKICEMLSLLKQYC

[8] = biological target: MCL-1 (Homo sapiens, UniProt Q07820); conditions: selectivity profile; cited from earlier work
Sequence of MCL-1 (Q07820 whole entry, species assumed): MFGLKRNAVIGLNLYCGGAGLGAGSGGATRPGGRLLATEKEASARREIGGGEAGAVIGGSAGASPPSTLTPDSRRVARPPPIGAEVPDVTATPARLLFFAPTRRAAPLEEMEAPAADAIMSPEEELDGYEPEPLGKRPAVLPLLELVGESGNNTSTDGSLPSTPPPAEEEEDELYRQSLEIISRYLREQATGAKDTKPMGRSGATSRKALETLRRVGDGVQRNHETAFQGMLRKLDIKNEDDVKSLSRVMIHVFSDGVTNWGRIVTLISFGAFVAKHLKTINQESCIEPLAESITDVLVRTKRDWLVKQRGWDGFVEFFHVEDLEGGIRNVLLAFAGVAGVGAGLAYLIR

CC1(C)CCC(CN2CCN(c3ccc(C(=O)NS(=O)(=O)c4ccc(NCC5CCOCC5)c([N+](=O)[O-])c4)c(Oc4cnc5[nH]ccc5c4)c3)CC2)=C(c2ccc(Cl)cc2)C1 [venetoclax, 4-(4-{[2-(4-chlorophenyl)-4,4dimethylcyclohex-1-en-1-yl]methyl}piperazin-1-yl)-N-({3-nitro-4-[(tetrahydro-2H-pyran-4ylmethyl)amino]phenyl}sulfonyl)-2-(1H-pyrrolo[2,3-b]pyridin-5-yloxy)benzamide]
average tumor volume ([1]; Day 65, re-treated mice (n=5/group)): about 1685 mm^3
tumor-free (TF) mice ([1]; day 41): 1 out of 10
tumor growth (tumor volume) ([1]; venetoclax 250 μg oral gavage 2 times, Drug A 10 mg/kg IP 4 times, FIG. 1A): inhibited tumor growth
aqueous solubility [2]: very low aqueous solubility
macrophage-mediated phagocytosis of HL60 cells [3]: stimulated macrophage-mediated phagocytosis of HL60 cells

[NH2][Pt]1([NH2])[O]C(=O)C2(CCC2)C(=O)[O]1 [Carboplatin, platinum, diammine [1,1cyclobutane-dicarboxylato(2-)-0,0]-, (SP-4-2)]
aqueous solubility [2]: water-soluble

N.N.[Cl][Pt][Cl] [cisplatin, dichloroplatinum diammoniate]
mice with a tumor volume<500 mm^3 ([4]; cisplatin two 5 mpk doses regimen): 10%
tumor growth ([4]; day 20, cisplatin two 5 mpk doses 10 days apart, Drug A two 30 mpk doses, FIG. 2A): inhibited somewhat

O=C(c1cc(-c2cc3c(cc2C(=O)N2Cc4ccccc4C[C@H]2CN2CCOCC2)OCO3)n2c1CCCC2)N(c1ccccc1)c1ccc(O)cc1 [Drug S55746, (S)—N-(4-hydroxyphenyl)-3-(6-(3-(morpholinomethyl)-1,2,3,4-tetrahydroisoquinoline-2-carbonyl)benzo[d][1,3]dioxol-5-yl)-N-phenyl-5,6,7,8-tetrahydroindolizine-1-carboxamide]
cytotoxic activity [5]: no cytotoxic activity
affinity for BCL-XL [6]: poor affinity
binding to BFL-1 (BCL2A1/A1) [7]: no significant binding
binding to MCL-1 [8]: no significant binding
